Drawing on US20060063759A1, “Tricyclic steroid hormone nuclear receptor modulators” (priority 2002, published 2006), this text covers Ki for 37 compounds.

Assay [1] concerns the target T1, human MR (Homo sapiens, UniProt P08235).
T1 construct: The full length human MR gene is cloned from a human kidney or human brain cDNA library; His tag from the pAcHLT vector (own knowledge); made in house; host or cells: Sf9 insect cells (baculovirus, pAcHLT transfer vector)
T1 sequence (P08235 1-984): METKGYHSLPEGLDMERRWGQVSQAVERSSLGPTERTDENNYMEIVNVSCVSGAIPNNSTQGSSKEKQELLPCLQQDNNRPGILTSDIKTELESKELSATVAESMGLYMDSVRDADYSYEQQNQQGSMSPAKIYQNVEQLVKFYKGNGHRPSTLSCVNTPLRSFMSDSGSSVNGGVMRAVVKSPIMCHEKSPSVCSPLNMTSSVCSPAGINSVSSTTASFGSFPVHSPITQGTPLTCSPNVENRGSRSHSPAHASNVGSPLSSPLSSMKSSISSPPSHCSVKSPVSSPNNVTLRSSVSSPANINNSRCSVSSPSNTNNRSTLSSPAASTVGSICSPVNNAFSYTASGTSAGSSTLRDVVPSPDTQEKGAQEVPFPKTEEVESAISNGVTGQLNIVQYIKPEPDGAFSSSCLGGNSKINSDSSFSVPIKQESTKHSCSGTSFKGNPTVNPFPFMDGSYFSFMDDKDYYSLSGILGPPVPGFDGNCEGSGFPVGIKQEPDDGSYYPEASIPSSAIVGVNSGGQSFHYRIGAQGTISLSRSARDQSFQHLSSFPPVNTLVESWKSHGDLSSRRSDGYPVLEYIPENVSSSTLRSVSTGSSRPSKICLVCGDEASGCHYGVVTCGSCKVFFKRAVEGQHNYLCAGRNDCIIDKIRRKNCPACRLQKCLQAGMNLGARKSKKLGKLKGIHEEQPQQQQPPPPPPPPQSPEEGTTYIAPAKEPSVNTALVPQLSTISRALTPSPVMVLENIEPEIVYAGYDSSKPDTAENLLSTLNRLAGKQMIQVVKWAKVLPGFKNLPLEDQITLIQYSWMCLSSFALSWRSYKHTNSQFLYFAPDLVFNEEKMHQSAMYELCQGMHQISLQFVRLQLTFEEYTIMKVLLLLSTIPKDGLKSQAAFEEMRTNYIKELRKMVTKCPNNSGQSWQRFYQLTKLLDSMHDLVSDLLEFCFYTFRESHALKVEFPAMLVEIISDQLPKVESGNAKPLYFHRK
Nature of the assay: Mineralocorticoid Receptor Binding Assay ([3H]-aldosterone). In outline:
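Lysate supernatant of Sf9 cells expressing full-length human MR (20-25 μg protein) was incubated with 0.5 nM [3H]-aldosterone and test compound in molybdate/Tris/phosphate/glycerol buffer, pH 7.5, ~16 h at 4 °C. Bound ligand was filtered and counted by scintillation; IC50 is the concentration halving [3H]-aldosterone binding.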

Assay [2] deals with T2, glucocorticoid receptor (Homo sapiens, UniProt P04150).
T2 construct: containing 50-200 ug of A549 cell extract and 1.86 nM [^3H]-dexamethasone; host or cells: A549 human lung epithelial cells (sonicated cell extract)
T2 sequence (P04150 1-777): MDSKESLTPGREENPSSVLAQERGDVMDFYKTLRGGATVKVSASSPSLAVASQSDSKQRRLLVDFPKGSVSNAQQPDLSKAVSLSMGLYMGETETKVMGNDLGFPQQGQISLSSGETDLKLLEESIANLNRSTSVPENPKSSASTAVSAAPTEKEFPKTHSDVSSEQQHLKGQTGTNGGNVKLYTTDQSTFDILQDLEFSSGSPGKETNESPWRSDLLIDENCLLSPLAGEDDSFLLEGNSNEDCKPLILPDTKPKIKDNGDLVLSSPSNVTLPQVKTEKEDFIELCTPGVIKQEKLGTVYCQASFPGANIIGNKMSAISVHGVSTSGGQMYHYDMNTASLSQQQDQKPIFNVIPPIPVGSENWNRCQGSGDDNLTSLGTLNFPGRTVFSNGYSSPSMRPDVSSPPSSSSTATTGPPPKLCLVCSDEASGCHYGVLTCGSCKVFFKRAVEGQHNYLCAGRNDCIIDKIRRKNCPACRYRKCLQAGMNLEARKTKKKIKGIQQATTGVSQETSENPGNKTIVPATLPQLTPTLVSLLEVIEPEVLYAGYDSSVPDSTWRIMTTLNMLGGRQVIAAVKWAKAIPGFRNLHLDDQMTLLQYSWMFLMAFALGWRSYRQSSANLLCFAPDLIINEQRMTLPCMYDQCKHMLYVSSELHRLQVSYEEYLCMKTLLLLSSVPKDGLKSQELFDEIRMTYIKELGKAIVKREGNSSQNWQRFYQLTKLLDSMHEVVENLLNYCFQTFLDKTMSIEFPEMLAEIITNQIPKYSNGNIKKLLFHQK
Nature of the assay: Glucocorticoid Receptor Binding Assay ([3H]-dexamethasone, A549 cell extract). The following applies: [3H]-dexamethasone binding, read-out: GR Ki. Summed up:
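A549 cell extract (50–200 ug) incubated with 1.86 nM [3H]-dexamethasone and test compound for 16 h at 4 °C in Tris-HCl pH 7.2 buffer with glycerol and molybdate. Unbound radioligand removed by dextran-coated charcoal, then supernatant bound counts measured by scintillation.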

[3] abbreviates: [3H]-aldosterone binding, human MR expressed in Sf9 cells, read-out: MR Ki.

Read-outs that look alike come from different tables or passages of the source.

One may read the Ki as a measure of affinity in units of concentration, obtained from inhibition or displacement.

For the compound `Cc1cccc2c1/C(=C\c1cccc(NS(C)(=O)=O)c1)c1ccccc1CC2` [Example 314], the Ki in assay [1] (setting [3]) and in assay [2] was under 500 nM each time.

Turning to `CS(=O)(=O)Nc1cccc(/C=C2/c3cccnc3CCc3c(F)cccc32)c1` [Example 576], the Ki is under 500 nM in assay [1] (setting [3]) and under 10000 nM in assay [2].

Take `COCC(=O)Nc1cccc(C=C2c3ccccc3CCc3cc(Cl)ccc32)c1` [Example 299]: the results for the Ki in assay [1] (setting [3]) and in assay [2] were under 500 nM and under 1000 nM, respectively.

Consider `Fc1ccc2c(c1)CCc1ncccc1/C2=C/c1ccccc1` [Example 526], for which the results for the Ki in assay [1] (setting [3]) and in assay [2] were under 500 nM and under 10000 nM, respectively.

As to `CC/C(=C1\c2ccccc2COc2cc(F)ccc21)c1cccc(NS(C)(=O)=O)c1` [Example 811], the Ki in assay [1] (setting [3]) and in assay [2] was under 500 nM throughout.

As to `O=c1[nH]c2cc(/C=C3/c4ccccc4COc4cc(F)ccc43)ccc2s1` [Example 636], the Ki in assay [1] (setting [3]) and in assay [2] was under 500 nM in each case.

As to `CSc1ccc2c(c1)CCc1ccccc1/C2=C\c1cccc(NS(C)(=O)=O)c1` [Example 388], the Ki in assay [1] (setting [3]) and in assay [2] was under 500 nM each time.

Regarding `COc1cccc2c1OCc1ccccc1/C2=C/c1cccc(NS(C)(=O)=O)c1` [Example 669], the inhibition constant (Ki) in assay [1] (setting [3]) and in assay [2] was under 500 nM each time.

Take `O=S(=O)(Nc1cccc(/C=C2\c3ccccc3CSc3ccccc32)c1)C1CC1` [Example 698]: the Ki in assay [1] (setting [3]) was under 1000 nM; in assay [2], under 500 nM.

As to `O=C(Nc1cccc(C=C2c3ccccc3CCc3cc(Cl)ccc32)c1)C(F)(F)F` [Example 400], the Ki in assay [1] (setting [3]) and in assay [2] was under 500 nM each time.

On to `COc1ccc2c(c1)CCc1cc(C)ccc1/C2=C(\C)c1cccc(NS(C)(=O)=O)c1` [Example 829], for which the Ki in assay [1] (setting [3]) and in assay [2] was under 500 nM each time.

Take `COC(=O)c1cccc(/C=C2/c3ccc(F)cc3CCc3ncccc32)c1` [Example 586]: the values for the Ki in assay [1] (setting [3]) and in assay [2] were under 500 nM and under 10000 nM, respectively.

Take `C/C(=C1/c2ccc(Cl)cc2COc2cc(F)ccc21)c1cccc(NS(C)(=O)=O)c1` [Example 803]: the Ki in assay [1] (setting [3]) and in assay [2] was under 500 nM throughout.

Turning to `O=S(=O)(Cc1cccc(/C=C2\c3ccccc3CSc3ccccc32)c1)c1cccc(C(F)(F)F)c1` [Example 700], the Ki in assay [1] (setting [3]) and in assay [2] was under 500 nM each time.

For `O=S(=O)(Nc1cccc(/C=C2\c3ccccc3CSc3ccccc32)c1)c1ccccc1` [Example 739], the Ki in assay [1] (setting [3]) and in assay [2] was under 500 nM in each case.

Consider `Nc1ccc(/C=C2/c3ccc(F)cc3CCc3ncccc32)cc1` [Example 535], for which the Ki in assay [1] (setting [3]) was under 1000 nM; in assay [2] it was under 10000 nM.

With `COc1cccc2c1/C(=C\c1cccc(NS(C)(=O)=O)c1)c1ccccc1SC2` [Example 696], the Ki in assay [1] (setting [3]) and in assay [2] was under 500 nM each time.

Consider `COc1ccc2c(c1)CCc1cc(OC)ccc1C2=Cc1ccc(OCCN2CCCCC2)cc1` [Example 333], for which the Ki in assay [1] (setting [3]) and in assay [2] was under 500 nM in each case.

On to `CCC/C(=C1\c2ccccc2COc2ccccc21)c1cccc(NS(C)(=O)=O)c1` [Example 801], for which the Ki in assay [1] (setting [3]) and in assay [2] was under 500 nM each time.

In the case of `Oc1cccc(/C=C2/c3ccccc3CCc3ncccc32)c1` [Example 507], the Ki in assay [1] (setting [3]) and in assay [2] was under 500 nM in each case.

Turning to `O=c1[nH]c2ccc(/C=C3\c4ccc(F)cc4COc4cc(F)ccc43)cc2[nH]1` [Example 613, 5-(3,8-Difluoro-6H-dibenzo[b,e]oxepin-11-ylidenemethyl)-1,3-dihydro-benzoimidazol-2-one], the Ki in assay [1] (setting [3]) and in assay [2] was under 500 nM in each case.

As for `Cc1ccc2c(c1)CCc1cc(F)ccc1/C2=C\c1cccc(NS(C)(=O)=O)c1` [Example 421], the Ki in assay [1] (setting [3]) and in assay [2] was under 500 nM in each case.

As for `O=c1[nH]c2ccc(/C=C3\c4ccccc4COc4cc(Cl)ccc43)cc2[nH]1` [Example 614, 5-(3-Chloro-6H-dibenzo[b,e]oxepin-11-ylidenemethyl)-1,3-dihydro-benzoimidazol-2-one], the values for the Ki in assay [1] (setting [3]) and in assay [2] were under 500 nM and under 1000 nM, respectively.

Regarding `CS(=O)(=O)Nc1cccc(/C=C2\c3ccccc3CCc3cccc(Cl)c32)c1` [Example 365], the Ki in assay [1] (setting [3]) and in assay [2] was under 500 nM throughout.

On to `O=c1[nH]c2cc(/C=C3\c4ccccc4COc4ccccc43)ccc2o1` [Example 620], for which the Ki in assay [1] (setting [3]) and in assay [2] was under 500 nM throughout.

With `CS(=O)(=O)Nc1cccc(/C=C2\c3ccc(Cl)cc3CCc3ncccc32)c1` [Example 570], the Ki in assay [1] (setting [3]) was under 500 nM; in assay [2], under 1000 nM.

Consider `O=c1[nH]c2cc(/C=C3\c4ccc(F)cc4CCc4ncccc43)ccc2n1CCN1CCOCC1` [Example 596], for which the values for the Ki in assay [1] (setting [3]) and in assay [2] were under 500 nM and under 10000 nM, respectively.

`CS(=O)(=O)Nc1cc(F)cc(/C=C2/c3ccc(Cl)cc3COc3ccccc32)c1` [Example 624]: the Ki in assay [1] (setting [3]) and in assay [2] was under 500 nM throughout.

As for `Fc1ccc2c(c1)CCc1ccccc1C2=Cc1cccnc1F` [Example 474], the Ki was under 500 nM in assay [1] (setting [3]) and under 1000 nM in assay [2].

As to `FC(F)(F)c1ccccc1CC1c2ccccc2CCc2ccccc21` [Example 283], the figures for the inhibition constant Ki in assay [1] (setting [3]) and in assay [2] were under 500 nM and under 10000 nM, respectively.

As to `CS(=O)(=O)Nc1cccc(/C(F)=C2\c3ccccc3COc3ccccc32)c1` [Example 806], the Ki in assay [1] (setting [3]) and in assay [2] was under 500 nM in each case.

For the compound `COc1cccc(/C=C2/c3ccccc3CCc3c(O)cccc32)c1` [Example 369], the values for the Ki in assay [1] (setting [3]) and in assay [2] were under 500 nM and under 10000 nM, respectively.

Consider `COc1ccc2c(c1)COc1cc(F)ccc1/C2=C(\C)c1cccc(NS(C)(=O)=O)c1` [Example 820], for which the Ki in assay [1] and in assay [2] was under 500 nM each time.

In the case of `CC/C(=C1/c2ccc(OC)cc2COc2ccccc21)c1cccc(NS(C)(=O)=O)c1` [Example 821], the inhibition constant (Ki) in assay [1] (setting [3]) and in assay [2] was under 500 nM each time.

In the case of `COc1ccc2c(c1)COc1ccccc1[C@H]2Cc1cccc(NS(C)(=O)=O)c1` [Example 734], the Ki in assay [1] (setting [3]) and in assay [2] was under 500 nM each time.

`CC(=C1c2ccccc2CCc2ccccc21)c1cccc(NS(C)(=O)=O)c1` [Example 765]: the Ki in assay [1] (setting [3]) and in assay [2] was under 500 nM in each case.

With `OCc1ccc(C=C2c3ccccc3CCc3ccccc32)cc1` [Example 76, [4-(10,11-Dihydro-dibenzo[a,d]cyclohepten-5-ylidenemethyl)-phenyl]-methanol], the results for the Ki in assay [1] (setting [3]) and in assay [2] were under 1000 nM and under 500 nM, respectively.
